In publication PMC6941952, “A homogeneous bioluminescent immunoassay to probe cellular signaling pathway regulation” (Communications Biology, 2020):
Values joined by “and” are separate entries in the source; they are usually repeats but may differ in a detail not shown here. Equal values may be shown once.

System: phospho-IκBα (Ser32)
Test: NanoBiT cell-based immunoassay, phosphorylated IκBα in MCF-7 cells
Design: species or system human
Procedure: Prior to NanoBiT Cell-Based Immunoassay, 50,000 cells were seeded in 160 µl of complete growth media per well of a 96-well plate and incubated overnight. The cells were checked under microscope and it was determined that 50,000 cells per well in 96-well plate is under 90% confluency for all cells tested. If necessary, the cell culture media were replaced with serum-free media after the cells were stably adherent on the plate and incubated overnight. To treat cells with activators or inhibitors, medium was changed to 30 µl of medium containing inhibitors. If activation of a specific pathway is needed, the cells were stimulated with 10 µl of medium containing activators. To lyse the cells, 10 µl of lysis buffer containing 0.1% digitonin diluted in 1X immunoassay buffer with protease and phosphatase inhibitors was added and the plates were mixed vigorously for 20 min. Then, 50 µl of an antibody mix containing two primary antibodies against the target protein and NanoBiT detecting antibodies (0.3 µl each per well), diluted in 1X immunoassay buffer was added to the lysates. The plates were incubated at 23 °C for 90 min, followed by the addition of 25 µl of Nano-Glo® reagent consisting of Nano-Glo® Luciferase Assay Substrate mixed with 1X immunoassay buffer. Luminescence was measured using a plate-reading luminometer.
In all, 50,000 MCF-7 cells were seeded in 160 µl complete growth medium per well of a 96-well plate and incubated overnight. Half of the cells were treated with 50 ng per ml TNFα and half with vehicle. Cells were lysed as described above and a mixture of NanoBiT secondary antibodies with primary antibodies at the matrix concentrations described in Fig. 2a were added. After 90 min incubation, the Nano-Glo® reagent was added to the reactions as described above and luminescence was measured using a plate-reading luminometer.
Single dose or dose response inhibitor treatments were performed prior to activation of the pathways as follows. For IκBα, the cells were treated in 30 µl medium with IKK16 or MG132 for 60 min before the addition of 10 µl of DMEM containing appropriate concentration of TNFα. To measure phosphorylation of AKT or STAT3, the corresponding NanoBiT immunoassays were developed with MCF-7 or A431 cells, respectively, according the same scheme used to develop the IκBα assay using the primary antibodies for AKT and STAT3 described in the reagents section. For the AKT assay, MCF-7 cells were incubated overnight in phenol-red free DMEM medium (Gibco #21063-029) without serum. Treatment with LY294002 was performed in 30 µl medium and cells were incubated for 60 min before the addition of 1 µM Insulin. To measure STAT3 phosphorylation, A431 cells were incubated overnight in DMEM medium without serum. […] After addition of the stimulators, the cells were incubated for additional times as follows. IκBα phosphorylation and degradation analyses required both time courses and single time points as described in figures. […] The NanoBiT immunoassay protocol was followed as described above.
All 96-well assay plates were read using a GloMax® 96 Microplate Luminometer from Promega. The instrument was set to 0.5 s integration time. In order to obtain net change of signal, the reagent background values (signal from the well containing all reagent except primary antibodies) were subtracted from the sample values. To plot and analyze the data, Microsoft Excel and GraphPad Prism® Software were used. IC50 values were determined by using a nonlinear regression fit to a sigmoidal dose response (variable slope).

O=C(c1ccc(Nc2nccc(-c3cc4ccccc4s3)n2)cc1)N1CCC(N2CCCC2)CC1 [IKK16]
P-IkB Raw data (Figure 3a and 3b): 17490 and 17630 and 17730 | P-IkB Subtract reagent background (Figure 3a and 3b): 280 and 420 and 520 | P-IkB Average (Figure 3a and 3b, background subtracted): 407 | TNFα-induced phosphorylation of IκBα on serine 32 (MCF-7 cells, 10 µM 1 h, TNFα 50 ng per ml 10 min): suppressed
